According to ChEMBL document CHEMBL3853282, “(±)-Japonicols A-D, Acylphloroglucinol-Based Meroterpenoid Enantiomers with Anti-KSHV Activities from Hypericum japonicum” (J Nat Prod, 2016):

How the values were obtained:
[1] = Cytotoxicity against African green monkey Vero cells assessed as reduction in cell viability after 48 hrs by Alamar blue assay; format: toxicity, cell-based; settings: chlorocebus sabaeus
[2] = Selectivity index, ratio of CC50 for African green monkey Vero cells to EC50 for Kaposi's sarcoma-associated herpesvirus infected in African green monkey Vero cells; format: toxicity, cell-based; settings: read-out: Ratio CC50/EC50
Human gammaherpesvirus 8 = test: Antiviral activity against Kaposi's sarcoma-associated herpesvirus infected in African green monkey Vero cells exposed to supernatant from 48 hrs compound treated human iSLK.219 cells infected with KSHV by GFP based microscopy; format: functional, cell-based; settings: Human gammaherpesvirus 8, Vero

| Structure (SMILES) | CC50 at 48 h [1] [µM] | selectivity ratio [2] | EC50 (Human gammaherpesvirus 8) [µM] |
| --- | --- | --- | --- |
| CC(C)C(=O)c1c(O)cc(O)c(C[C@@H]2[C@@H](C(C)(C)O)CC[C@]2(C)O)c1O | > 300 | > 1.89 | 158 |
| CC(C)C(=O)c1c(O)cc(O)c2c1OC(C)(C)[C@@H]1CC[C@@](C)(O)[C@H]1C2 | > 300 |  | 39.8 |
| CC(C)C(=O)c1c(O)cc(O)c2c1O[C@@]1(C)CC[C@@H](C(C)(C)O)[C@@H]2[C@H]1O | > 500 | > 2.46 | 203 |
| CC(C)C(=O)c1c(O)cc(O)c2c1OC(C)(C)[C@H]1CC[C@](C)(O)[C@@H]1C2 | 221 |  | 17.7 |
| CC(C)C(=O)c1c(O)cc(O)c(C[C@H]2[C@H](C(C)(C)O)CC[C@@]2(C)O)c1O | > 300 | > 7.5 | 40 |
| CC(C)C(=O)c1c(O)cc(O)c2c1O[C@]1(C)CC[C@H](C(C)(C)O)[C@H]2[C@@H]1O | > 500 | > 3.55 | 141 |
| CC(C)C(=O)c1c(O)cc(O)c2c1O[C@]1(C)CC[C@@H](C(C)(C)O)O[C@@H]1C2 | 174 |  | 29.1 |
| CC(C)C(=O)c1c(O)cc(O)c2c1O[C@@]1(C)CC[C@H](C(C)(C)O)O[C@H]1C2 | 141 |  | 8.75 |
